Tests used:
Format in all cases: cell-based
SW480 colon cancer cells = experiment: Cell viability assay (CellTiter-Blue), four days; conditions: Homo sapiens, 96 h; for inhibition at 10 µM: read-out: percent inhibition at 10 μM (given for EC50 of >10 μM); for EC50: CellTiter-Blue cell viability
Method in brief: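 Four-day viability readout in SW480 cells: compound at 0.0045–10 μM (1:3 series), DMSO controls in eight replicates, CellTiter-Blue fluorescence after ~3 h. Values are regression-derived EC50s, or percent inhibition at 10 μM when EC50 exceeds 10 μM.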

[1] = system: Primary human fibroblasts derived from IPF patients (LL29 cells) treated with TGF-β1; experiment: Inhibition of the fibrotic process: αSMA staining in TGF-β1 treated fibroblasts; conditions: Fibroblast, 96 h, LL29 fibroblasts treated with TGF-β1, 4 days; for inhibition at 10 µM: read-out: percent inhibition in brackets beside EC50 >10 μM
Method in brief: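 Potency reflects suppression of TGF-β1-driven αSMA expression in IPF patient fibroblasts over 4 days. Values are EC50s from normalized αSMA-positive cell counts, with % inhibition at 10 μM when EC50 exceeded 10 μM.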

[2] = system: IL-6 in human monocyte cell line (THP-1 cells); experiment: IL-6 inhibition in LPS-stimulated THP-1 cells (HTRF); conditions: IL-6 in LPS-stimulated THP-1 cells; for EC50: HTRF; for inhibition at 10 µM: read-out: percent inhibition in brackets beside EC50 >10 μM
Method in brief: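 Readout is the 665/620 nm HTRF ratio for secreted IL-6, normalized to DMSO wells, with EC50 from a variable-slope four-parameter fit, or % inhibition at 10 μM when above 10 μM. Cells (1% FBS, 24 h beforehand) got compound for 2 h, then LPS 500 ng/mL for 22 h at 37° C; top dose 10 μM, 0.1% DMSO.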

| SMILES | EC50 (SW480 colon cancer cells) | EC50 [2] | inhibition at 10 µM (SW480 colon cancer cells) | EC50 [1] | inhibition at 10 µM [2] | inhibition at 10 µM [1] |
| --- | --- | --- | --- | --- | --- | --- |
| CCCC(=O)Nc1cncc(-c2ccc3[nH]nc(-c4nc5c(-c6cc(F)cc(CNS(C)(=O)=O)c6)nccc5[nH]4)c3n2)c1 [Compound 493, N-(5-(3-(4-(3-Fluoro-5-(methylsulfonamidomethyl)phenyl)-1H-imidazo[4,5-c]pyridin-2-yl)-1H-pyrazolo[4,3-b]pyridin-5-yl)pyridin-3-yl)butyramide] | > 10 µM | > 10 µM | 4.3% | > 10 µM | 20.3% | 0% |
| Cc1ccc(-c2nccc3[nH]c(-c4n[nH]c5ccc(-c6cncc(N)c6)nc45)nc23)s1 [Compound 395, 5-(3-(4-(5-Methylthiophen-2-yl)-1H-imidazo[4,5-c]pyridin-2-yl)-1H-pyrazolo[4,3-b]pyridin-5-yl)pyridin-3-amine] | 0.156 µM | 0.142 µM |  | 5.07 µM |  |  |
| Cc1ccncc1-c1ccc2[nH]nc(-c3nc4c(-c5cc(F)cc(CNS(C)(=O)=O)c5)nccc4[nH]3)c2n1 [Compound 481, N-(3-Fluoro-5-(2-(5-(4-methylpyridin-3-yl)-1H-pyrazolo[4,3-b]pyridin-3-yl)-1H-imidazo[4,5-c]pyridin-4-yl)benzyl)methanesulfonamide] | 7.14 µM | 9.81 µM |  | 5 µM |  |  |
| O=C(Nc1cncc(-c2ccc3[nH]nc(-c4nc5c(-c6cccc(F)c6)nccc5[nH]4)c3n2)c1)C1CC1 [Compound 20, N-(5-(3-(4-(3-Fluorophenyl)-1H-imidazo[4,5-c]pyridin-2-yl)-1H-pyrazolo [4,3-b]pyridin-5-yl)pyridin-3-yl)cyclopropanecarboxamide] | > 10 µM | > 10 µM | 6% | > 10 µM | 0% | 14.1% |
| O=C(Nc1cncc(-c2ccc3[nH]nc(-c4nc5c(-c6cccs6)nccc5[nH]4)c3n2)c1)C1CC1 [Compound 356, N-(5-(3-(4-(Thiophen-2-yl)-1H-imidazo[4,5-c]pyridin-2-yl)-1H-pyrazolo [4,3-b]pyridin-5-yl)pyridin-3-yl)cyclopropanecarboxamide] | > 10 µM | > 10 µM | 1.5% | 5.59 µM | 0% |  |

Now from value to molecule, other results behind:

| EC50 (SW480 colon cancer cells) | EC50 [2] | SMILES | inhibition at 10 µM (SW480 colon cancer cells) | EC50 [1] | inhibition at 10 µM [2] | inhibition at 10 µM [1] |
| --- | --- | --- | --- | --- | --- | --- |
| > 10 µM | > 10 µM | Fc1cccc(-c2nccc3[nH]c(-c4n[nH]c5ccc(C6CCNCC6)nc45)nc23)c1 [Compound 505, 3-(4-(3-Fluorophenyl)-1H-imidazo[4,5-c]pyridin-2-yl)-5-(piperidin-4-yl)-1H-pyrazolo[4,3-b]pyridine] | 0.4% | 3.8 µM | 9.3% |  |
| > 10 µM | > 10 µM | O=C(CC1CCNCC1)Nc1cncc(-c2ccc3[nH]nc(-c4nc5c(-c6ccccn6)nccc5[nH]4)c3n2)c1 [Compound 593, 2-(Piperidin-4-yl)-N-(5-(3-(4-(pyri-2-yl)-1H-imidazo[4,5-c]pyridin-2-yl)-1H-pyrazolo[4,3-b]pyridin-5-yl)pyridin-3-yl)acetamide] | 9.1% | 1.57 µM | 32.5% |  |
| > 10 µM | 3.1 µM | Oc1cncc(-c2ccc3[nH]nc(-c4nc5c(-c6cccnc6)nccc5[nH]4)c3n2)c1 [Compound 565, 5-(3-(4-(Pyridin-3-yl)-1H-imidazo[4,5-c]pyridin-2-yl)-1H-pyrazolo[4,3-b]pyridin-5-yl)pyridin-3-ol] | 32.7% | 0.797 µM |  |  |
| 1.61 µM | 3.57 µM | CN(C)CCOc1cncc(-c2ccc3[nH]nc(-c4nc5c(-c6cccc(F)c6)nccc5[nH]4)c3n2)c1 [Compound 515, 2-((5-(3-(4-(3-Fluorophenyl)-1H-imidazo[4,5-c]pyridin-2-yl)-1H-pyrazolo [4,3-b]pyridin-5-yl)pyridin-3-yl)oxy)-N,N-dimethylethan-1-amine] |  | 0.865 µM |  |  |
